Test: Plasma ketamine, HNK and norketamine levels, CSBD subjects (Example 10)
Type: in vivo, human
Details: analyte = label; for peak plasma concentration: 100 mg racemic ketamine sublingual; for time of peak plasma concentration: post-administration of 100 mg racemic ketamine sublingual
Method: A study was completed on the use of ketamine to treat CSBD. Subjects were assessed for CSBD using the Problematic Pornography Use Scale (PPUS) and were included if they received an PPUS score greater than 3. Three subjects in total were included (CSB1-CSB3). All three were administered sublingual lozenges comprising 100 mg of racemic ketamine.
Blood samples were collected from all three subjects. Blood samples were analysed to determine ketamine and ketamine metabolite levels. Assessments were conducted as below.
The treatment protocol commenced in the same way as disclosed in the ketamine in subjects with gambling disorder study completed in EXAMPLE 7, with the exceptions outlined as follows: No behavioural tasks were completed. Self-report measures completed during EXAMPLE 10 included the Emotional Intimacy Measure, the Childhood Trauma Questionnaire, the Generalised Anxiety Disorder-7 (GAD-7), the Morningness-Eveningness Questionnaire (MEQ), and the Problematic Pornography Questionnaire (PPQ), the Acceptance and Action Questionnaire, and the Psychological and Interpersonal Relationship Scales (PAIRS).

With `NC1(c2ccccc2Cl)CCCCC1=O` (racemic) [Norketamine, (R,S)-norketamine] the peak plasma concentration (subject CSB1) was “about 1,069 ng/ml”, the “time of peak plasma concentration” value (subject CSB1) was 80 min and the peak plasma concentration (subject CSB2) was “about 785 ng/ml”. The “time of peak plasma concentration” value (subject CSB2) was 70 min, the peak plasma concentration (subject CSB3) was “about 923 ng/mL” and the “time of peak plasma concentration” value (subject CSB3) was 70 min.
For `N[C@@]1(c2ccccc2Cl)CCC[C@@H](O)C1=O` [HNK, (2S,6S;2R,6R)-hydroxynorketamine], the peak plasma concentration (subject CSB1) was “about 136 ng/ml”, the “time of peak plasma concentration” value (subject CSB1) was 80 min and the peak plasma concentration (subject CSB2) was “about 135 ng/ml”. For the same compound, the “time of peak plasma concentration” value (subject CSB2) was 90 min, the peak plasma concentration (subject CSB3) was “about 314 ng/mL” and the “time of peak plasma concentration” value (subject CSB3) was 70 min.

From patent publication US20240197652A1, “KETAMINE IN THE TREATMENT OF […]” (Awakn LS Europe Holdings Limited, priority 2021, published 2024)
